Entries after “also recorded” stand apart in the source; their conditions may differ.
What was measured:
T cells = test: Viable cell count and percentage of viable cells post-electroporation with supplements; type: cell-based; details: day 7 post-electroporation; NAC 10 mM for duration, anti-IFNAR2 antibody once at 10 μg/ml
Experimental: This example examined the effects of treatment with NAC, Akt VIII inhibitor, or anti-IFNAR2, on post-electroporation T cell survival as well as transfection efficiency. In these experiments, 2×10^6 cells in 100 μl were electroporated non-sequentially at 36 hr post-stimulation. After electroporation, the cells were recovered for 15 min, and then split equally among 5 different supplement conditions, as listed in Table 5. NAC was added to the medium at 10 mM for duration, Akt VIII inhibitor at 8 μM for duration, and anti-IFNAR2 antibody was added to the media once at 10 μg/ml. “Nuc” in Table 2 and FIGS. 22A-22D denotes the condition where exogenous DNA was added to be inserted into cell genome at 20 μg (“+20 μg), 35 μg (“+35 μg), or 50 μg (“+50 μg”).
FIG. 23A-FIG. 23C show graphs of viable cell count in each condition on day 2, 5, and 7 post-electroporation, respectively. FIG. 23D-FIG. 23F show graphs of percentage of viable cells in each condition on day 2, 5, and 7 post-electroporation, respectively.

primary T cells = test: Transfection efficiency: GFP or mTCR transgene expression by FACs on day 7 / day 14 post electroporation; type: cell-based, human; details: for stable transgene expression (percent GFP or mTCR): 14 days post-transfection, electroporated on day 0 or day 1 post stimulation (FIG. 18); for transgene expression (day 7 percent GFP or mTCR expression): T cells electroporated on day 0 or day 1 post stimulation (FIG. 17); for transgene expression (percent GFP+ or mTCR+ cells): day 14 post electroporation of plasmid donor on day 0 or day 1, Cas9, gRNA (FIG. 16)
Experimental: Electroporated T cells are analyzed by flow cytometry ˜24-48 hours after transfection to test for expression of GFP or other fluorochrome (marker for transgene expression). For knockout experiments, analysis for loss of target protein is conducted between 7-9 days post transfection. For knock-in experiments, measure marker expression on day 7 and day 14. Cells are prepared by washing with chilled 1×PBS with 0.5% FBS and stain according to manufacturer recommendations for each antibody.
Transfection efficiency was also assessed by examining the stable expression of the transgenes introduced by the plasmids. FIG. 15C is a graph showing percentage of GFP-expressing cells in each group of cells, and FIG. 15D is a graph showing percentage of mTCR-expressing cells in each group of cells. In these experiments, the primary T cells were transfected through electroporation with plasmid donor expressing GFP or mTCR on day 0 or 1, FACs was performed to examine the transgene expression on day 14 post electroporation.
This example examined the effects of treatment of electroporated T cells with DNase, RS-1, or both DNase and RS-1, on transfection efficiency. Primary T cells were transfected through electroporation with plasmid donor expressing GFP or mTCR on day 0 or 1, FACs was performed to examine the transgene expression on day 14 post electroporation.
FIGS. 17A-17D are FACs density plots of T cells on day 7 post electroporation.
FIGS. 18A-18B are FACs density plots of T cells on day 14 post electroporation.

[1] = tested on: T cells from donors 055330, 119866, 120534; test: FACs analysis of electroporation efficiency (mTCR), single or sequential electroporation; type: cell-based, human
activated T cell culture = test: Cell clumping / T cell survival 24 hours following electroporation with plasmid donor vector; type: cell-based, human; details: DNase in culture medium vs none
Experimental: • (a) Stimulated T cells are electroporated using the Neon Transfection System (100 uL or 10 ul Kit, Invitrogen, Life Technologies). • (b) Pellet cells and wash once with PBS or T buffer. • (c) Resuspend cells at a density of […] in 10 uL of T buffer for 10 ul tip, and 1×10^6 cells in 100 ul T buffer for 100 ul tips. • (d) Add specified mass of mRNA/DNA and electroporated at 1400 V, 10 ms, 3 pulses. • a. For knockout using all mRNA: • i. 100 ul tip: 15 ug Cas9 mRNA, 10 ug gRNA-RNA • ii. 10 ul tip: 1.5 ug Cas9 mRNA, 1 ug gRNA-RNA • b. When including plasmid donor for knock-in: • i. 100 ul tip: 5-20 ug plasmid • ii. 10 ul tip: 0.5-2 ug plasmid • c. For sequential electroporations: • On 0 hr timepoint deliver the amount of Cas9 specified in “a” • ii. At time point 0 hr and 6-24 hr, deliver gRNA and plasmid together in amounts specified in “a” and “b”. • (e) After transfection, plate cells at 3000 cells/ul in antibiotic free culture media containing 10 ug/ml DNase I and incubate at 37° C. in 5% CO2 for ˜20 minutes. • (f) After recovery period, add 2 times volume of antibiotic containing media to well and culture at 37° C. in 5% CO2. rAAV Transduction of CD3+ T Cells • (a) Thaw rAAV on ice and mix well prior to addition to cells. • (b) Add specified MOI at the following timepoints post-electroporation • a. For Cas9 mRNA edited cells: • i. Add virus 4-6 hours post • b. […]

Primary human T cells = test: Percent recovery of viable transfected cells 24 hr post electroporation by flow cytometry; type: cell-based; details: for percent recovery of the transfected cells: 24 hr post electroporation, DNase 10 μg/ml in recovery media
Experimental: This example examined the effect of DNase on post-electroporation T cell survival as well as transfection efficiency. Primary human T cells were cultured and stimulated with IL-2, IL-7, and IL-15. Later the T cells were either pulsed (control) or transfected with 1.5 μg of pMND-GFP plasmid (about 7.5 kb) at 36 hr or 48 hr post-stimulation. For comparison, DNase was added to recovery media of one group of transfected cells at 10 μg/ml. Cells were incubated in this recovery media following electroporation for 30 min. And after recovery, 2 times volume of complete media was added without any wash step (therefore diluted DNase remained in the media).
Cells were analyzed 24 hr post electroporation by flow cytometry to determine the percentage of recovered viable cells, as shown in FIG. 15A. FIG. 15B is a graph showing the percent recovery of the transfected cells in each group. DNase increased percent recovery in both “36 hr pMND-GFP” group, where cells were transfected with pMND-GFP plasmid at 36 hr post-stimulation, and “48 hr pMND-GFP” group, where cells were transfected with pMND-GFP at 48 hr post-stimulation.

[2] = donor 055330, 36 hours post stimulation or 36 hours post stimulation and 6 hours post initial electroporation
[3] = donor 119866, 36 hours post stimulation or 36 hours post stimulation and 6 hours post initial electroporation
[4] = donors 055330 and 119866 at 24 hours post initial electroporation, donor 120534 at 36 hours post stimulation or plus 6 hours (FIG. 21)
[5] = T cells transfected on day 1, day 14 post electroporation, plasmid donor, Cas9, gRNA
[6] = day 14 post electroporation of plasmid donor on day 0 or 1, with vs without DNase

| Compound | cell viability (T cells) | stable transgene expression (percent GFP or mTCR) (primary T cells) | transgene expression (day 7 percent GFP or mTCR expression) (primary T cells) | transgene expression (percent GFP+ or mTCR+ cells) (primary T cells) | transgene (mTCR) expression, electroporation efficiency [1, 2] | transgene (mTCR) expression, electroporation efficiency [1, 3] | transgene (mTCR) expression, electroporation efficiency [1, 4] | cell clumping and floating dead cells (activated T cell culture) | lymphocyte survival after transfection (Primary human T cells; 24 hours post-electroporation of a plasmid, culture with vs without DNase) | percent recovery of the transfected cells (Primary human T cells; pMND-GFP plasmid at 36 hr post-stimulation) | percent recovery of the transfected cells (Primary human T cells; pMND-GFP plasmid at 48 hr post-stimulation) | GFP expression (percentage of GFP+ cells) (primary T cells; [5]) | mTCR expression (percentage of mTCR+ cells) (primary T cells; [5]) | integration efficiency, percentage of GFP-expressing cells (primary T cells; [6]) | integration efficiency, percentage of mTCR-expressing cells (primary T cells; [6]) |
| --- | --- | --- | --- | --- | --- | --- | --- | --- | --- | --- | --- | --- | --- | --- | --- |
| CC(=O)N[C@@H](CS)C(=O)O [NAC, N-acetyl-cysteine] | increased |  |  |  |  |  |  |  |  |  |  |  |  |  |  |
| O=C(Nc1ccc(Br)cc1)c1ccc(Br)c(S(=O)(=O)NCc2ccccc2)c1 [RS-1, 3-((benzylamino)sulfonyl)-4-bromo-N-(4-bromophenyl)benzamide] |  | increased | increased | increased | increased | increased | increased |  |  |  |  |  |  |  |  |
| DNase |  | increased | increased | increased | increased | increased | increased | no cell clumps were visible; also recorded: did not show cell clumping or floating cell corpses | increased | increased | increased | promoted | promoted | increased | increased |

Reference: US20220282285A1, “GENETICALLY-EDITED IMMUNE CELLS AND METHODS OF THERAPY” (REGENTS OF THE UNIVERSITY OF MINNESOTA, priority 2019, published 2022)
